Experimental data: ChEMBL document CHEMBL1201862, “PubChem BioAssay data set” (2004)
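Interpolation was linear, between the two tested concentrations surrounding the appropriate level; five concentrations were tested over 48 hours in 96-well plates. GI50 marks 50% less growth.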 Active and inactive are the calls of the source. Cut-off read from the data, not from the text of the source: active = GI50 up to about 1.1 µM and inactive = higher.

Columns and labels:
Assay in all cases: DTP human tumour cell line panel, 48 h
A549 = tested on: A549
CAKI-1 = tested on: CAKI-1
CCRF-CEM = tested on: CCRF-CEM
HCC 2998 = tested on: HCC 2998
HCT-15 = tested on: HCT-15
HL-60 = tested on: HL-60
HOP-92 = tested on: HOP-92
LXFL 529 = tested on: LXFL 529
Malme-3M = tested on: Malme-3M
NCI-H226 = tested on: NCI-H226
OVCAR-5 = tested on: OVCAR-5
RXF 393 = tested on: RXF 393
SR = tested on: SR
TK-10 = tested on: TK-10
UO-31 = tested on: UO-31
BT-549 = tested on: BT-549
DU-145 = tested on: DU-145
MCF7 = tested on: MCF7
MDA-MB-231 = tested on: MDA-MB-231
UACC-257 = tested on: UACC-257

Row | SMILES | GI50 (A549) | GI50 (CAKI-1) | GI50 (CCRF-CEM) | GI50 (HCC 2998) | GI50 (HCT-15) | GI50 (HL-60) | GI50 (HOP-92) | GI50 (LXFL 529) | GI50 (Malme-3M) | GI50 (NCI-H226) | GI50 (OVCAR-5) | GI50 (RXF 393) | GI50 (SR) | GI50 (TK-10) | GI50 (UO-31) | GI50 (BT-549) | GI50 (DU-145) | GI50 (MCF7) | GI50 (MDA-MB-231) | GI50 (UACC-257)
1 | CC(=O)OC1CC2C(C)(C)OC(=O)CC(OC(C)=O)[C@]2(C)C2CCC3(C)C(=CCC3[C@H]3COC(=O)C3)[C@]12C (stereo not given in full) | 55.6 µM (inactive) | > 100 µM (inactive) | 23.5 µM (inactive) | > 100 µM (inactive) | > 100 µM | 50.1 µM (inactive) | 26.1 µM (inactive) | 51.8 µM (inactive) | > 100 µM (inactive) | > 100 µM (inactive) | > 100 µM (inactive) | > 100 µM (inactive) | 24 µM (inactive) | > 100 µM (inactive) | > 100 µM (inactive) |  |  |  |  | 
2 | O=C(CCN1CCCCC1)N1CCc2c([nH]c3ccccc23)C1c1cccnc1 (stereo not given) | > 93.3 µM (inactive) | > 73.6 µM (inactive) | 57.4 µM (inactive) | 28 µM (inactive) | 85.5 µM | 41.2 µM (inactive) | 29.7 µM (inactive) | 20.9 µM (inactive) | 20.8 µM (inactive) | > 91.8 µM (inactive) | > 73.3 µM (inactive) | 28.7 µM (inactive) | 41.5 µM (inactive) | 68.9 µM (inactive) | 38.3 µM (inactive) | > 61.8 µM (inactive) | > 100 µM (inactive) | 99.3 µM (inactive) | 34.1 µM (inactive) | 17.5 µM (inactive)
3 | Cc1ccc(/N=N/c2c(-c3ccccc3)nn(C(=O)CC(=O)Nc3ccc(Cl)cc3)c2-c2ccccc2)cc1 | 78.9 µM (inactive) | 55 µM (inactive) | 18.6 µM (inactive) | 56.1 µM (inactive) | 56.4 µM | 32.4 µM (inactive) | 23.9 µM (inactive) | 27.9 µM (inactive) | 83.6 µM (inactive) | 36.6 µM (inactive) | 48.6 µM (inactive) | 28.4 µM (inactive) | 12.3 µM (inactive) |  | 27.7 µM (inactive) |  |  |  |  | > 100 µM (inactive)
4 | CC(=O)C(CN(C)Cc1ccccc1)C(c1ccccc1)c1c(O)c2ccccc2oc1=O (stereo not given) | > 100 µM (inactive) | > 100 µM (inactive) | > 100 µM (inactive) | > 100 µM (inactive) | > 100 µM | 52.5 µM (inactive) | 31.9 µM (inactive) | > 100 µM (inactive) | > 100 µM (inactive) | 10.4 µM (inactive) | > 100 µM (inactive) | > 100 µM (inactive) | > 100 µM (inactive) | > 100 µM (inactive) | 16.6 µM (inactive) |  |  |  |  | > 100 µM (inactive)
5 | COC(=O)[C@H](C)[C@H]1CC[C@@](C)([C@H]2CC3C(C)(C)[C@H]4CCC(C)=C[C@H]4C[C@@]3(C)O2)OO1 (stereo not given in full) | 8.24 µM (inactive) | 5.13 µM (inactive) | 4.2 µM (inactive) | 6.68 µM (inactive) | 10.5 µM | 2.05 µM (inactive) | 2.86 µM (inactive) | 2.03 µM (inactive) | 14.1 µM (inactive) | 14.7 µM (inactive) | 13.4 µM (inactive) | > 10 µM (inactive) | 9.12 µM (inactive) | 15.3 µM (inactive) | 6.52 µM (inactive) |  |  |  |  | 12.1 µM (inactive)
6 | CCN(CC)CCNc1ccc2ncn3c4ccc(O)cc4c(=O)c1c23 | 0.0248 µM (active) | 0.0649 µM (active) | 0.0719 µM (active) | 2.51 µM (inactive) | 0.214 µM | 0.131 µM (active) | 0.434 µM (active) | 1.26 µM (inactive) | 1.48 µM (inactive) | 0.04 µM (active) | 2.37 µM (inactive) | 0.178 µM (active) | < 0.01 µM (active) | 3.2 µM (inactive) | 0.429 µM (active) | 12 µM (inactive) | 0.315 µM (active) | 0.15 µM (active) | 1.65 µM (inactive) | 6.62 µM (inactive)
7 | C/C(=N\NC(=S)NNC(=S)N(C)c1ccccc1)c1ccccn1 | 1.11 µM (active) | 0.977 µM (active) | 0.399 µM (active) | 1.32 µM (inactive) | 1.16 µM | 0.343 µM (active) | 2.52 µM (inactive) | 0.815 µM (active) | 1.66 µM (inactive) | 1.41 µM (inactive) | 24 µM (inactive) | 4.19 µM (inactive) |  | 2.86 µM (inactive) | 0.577 µM (active) | 3.14 µM (inactive) | 1.02 µM (active) | 1.84 µM (inactive) | 6.22 µM (inactive) | 1.31 µM (inactive)
8 | CC(C)Cc1ccc(C(C)CC2=CCC(CN(C)C)C2=O)cc1 (stereo not given) | 18.3 µM (inactive) | 1.84 µM (inactive) | 2.4 µM (inactive) | 5.19 µM (inactive) | 2.64 µM | 1.96 µM (inactive) | 2.95 µM (inactive) | 1.73 µM (inactive) | 6.15 µM (inactive) | 16.7 µM (inactive) | 16.1 µM (inactive) | 5.78 µM (inactive) | 1.86 µM (inactive) |  | 16.4 µM (inactive) | 19.5 µM (inactive) | 16.6 µM (inactive) | 1.17 µM (inactive) | 10.5 µM (inactive) | 13.5 µM (inactive)
9 | NS(=O)(=O)c1ccc(NC(=O)Cc2nc3ccccc3s2)cc1 | 20.6 µM (inactive) | 16.5 µM (inactive) | 13.4 µM (inactive) | 19.5 µM (inactive) | 17.7 µM | 19.1 µM (inactive) | 16.2 µM (inactive) | 16.8 µM (inactive) | 16 µM (inactive) | 17.9 µM (inactive) | 20.7 µM (inactive) | 18.6 µM (inactive) | 20.1 µM (inactive) | 24.1 µM (inactive) | 22.5 µM (inactive) |  |  |  |  | 15.8 µM (inactive)
10 | COCc1cc2c(s1)C(=O)C1=C(C2=O)C2(C=C(Br)C(=O)C(Br)=C2)CCN1 | 6.53 µM (inactive) | 20 µM (inactive) | 3.01 µM (inactive) | 11.1 µM (inactive) | 3.13 µM | 2.36 µM (inactive) | 4.94 µM (inactive) | 2.72 µM (inactive) | 0.946 µM (active) | 12.7 µM (inactive) | 15.5 µM (inactive) | 2.4 µM (inactive) | 1.49 µM (inactive) | 18.2 µM (inactive) | 12.8 µM (inactive) |  | 16 µM (inactive) | 10.6 µM (inactive) | 3.04 µM (inactive) | 1.55 µM (inactive)
11 | COc1ccc(OC)c2c1C(=O)C(Cl)=C(Cl)C2=O | 22.3 µM (inactive) | 2.56 µM (inactive) | 14.6 µM (inactive) | 17.3 µM (inactive) | 3.3 µM | 44.5 µM (inactive) | 2.51 µM (inactive) | 1.95 µM (inactive) | 2.25 µM (inactive) | 18.7 µM (inactive) | 15.7 µM (inactive) | 1.85 µM (inactive) | 1.16 µM (inactive) | 3.09 µM (inactive) | 2.44 µM (inactive) |  | 19.6 µM (inactive) | 2.6 µM (inactive) | 2.74 µM (inactive) | 2.19 µM (inactive)
12 | C=C1CC[C@@H]2C(C)(C)CCC[C@@]2(C)[C@@H]1Cc1cc(O)ccc1O | 5.36 µM (inactive) | 8.26 µM (inactive) | 0.558 µM (active) | 13.8 µM (inactive) | 3.09 µM | 1.53 µM (inactive) | 2.79 µM (inactive) | 2.11 µM (inactive) | 5.25 µM (inactive) | 2.55 µM (inactive) | 15.1 µM (inactive) | 1.67 µM (inactive) | 2.42 µM (inactive) | 3.17 µM (inactive) | 2.52 µM (inactive) |  |  |  |  | 1.93 µM (inactive)
13 | O=C1c2ccccc2C(=O)c2sc(Nc3cccc(Cl)c3)nc21 | 2.21 µM (inactive) | 2.04 µM (inactive) | 1.36 µM (inactive) | 2.75 µM (inactive) | 1.88 µM | 0.172 µM (active) |  | 1.48 µM (inactive) | 1.52 µM (inactive) | 3.96 µM (inactive) | 2.22 µM (inactive) | 1.45 µM (inactive) | 2.34 µM (inactive) | 2.88 µM (inactive) | 2.3 µM (inactive) |  |  |  |  | 1.52 µM (inactive)
14 | CCN(CC)[C@@H]1c2cc3c(cc2C(c2cc(OC)c(O)c(OC)c2)C2C(=O)CO[C@@H]21)OCO3 (stereo not given in full) | > 100 µM (inactive) | > 100 µM (inactive) | > 100 µM (inactive) | > 100 µM (inactive) | > 100 µM | > 100 µM (inactive) | > 100 µM (inactive) | > 100 µM (inactive) | > 100 µM (inactive) | > 100 µM (inactive) | > 100 µM (inactive) | 65.5 µM (inactive) | > 100 µM (inactive) | > 100 µM (inactive) | > 100 µM (inactive) |  |  |  |  | > 100 µM (inactive)
15 | CC1C[C@H](C)CC(C(O)CC2CC(=O)N(Cc3ccccc3)C(=O)C2)C1O (stereo not given in full) | > 100 µM (inactive) | > 100 µM (inactive) | > 100 µM (inactive) | > 100 µM (inactive) |  | > 100 µM (inactive) | > 100 µM (inactive) | > 100 µM (inactive) | > 100 µM (inactive) | > 100 µM (inactive) | > 100 µM (inactive) | > 100 µM (inactive) | > 100 µM (inactive) | > 100 µM (inactive) | > 100 µM (inactive) |  |  |  |  | > 100 µM (inactive)
16 | NC(=O)C12CCC1C1CCCCC12N1CCOCC1 (stereo not given) | > 100 µM (inactive) | > 100 µM (inactive) | > 100 µM (inactive) | > 100 µM (inactive) | > 100 µM | > 100 µM (inactive) | > 100 µM (inactive) | > 100 µM (inactive) | > 100 µM (inactive) |  | > 100 µM (inactive) | > 100 µM (inactive) | > 100 µM (inactive) | > 100 µM (inactive) | > 100 µM (inactive) |  |  |  |  | 
